The text below walks through data of US7601702B2, “Dutpase Inhibitors” (Medivir AB, priority 2004, dated 2009).

pEC50, pKi: −log10 of the molar value. ≈ marks a conversion by molar mass, not a printed value. Counter-ions that a name gives are not always drawn. Like-named read-outs stand apart in the source and are kept apart here.

In one data set the test system is P. falciparum K1. Nature of the data set: Malaria whole cell assay, K1 strain. As to conditions: Plasmodium falciparum. Type of data set: cell-based. The method, then: (§1) Two strains of P. falcipanum are used in this study: The drug sensitive NF54 (an airport strain of unknown origin) and K1 (Thailand, chloroquine and pyrimethamine resistant). The strains are maintained in RPMI-1640 medium with 0.36 mM hypoxanthine supplemented with 25 mM HEPES, 25 mM NaHCO3, neomycin (100 U/ml) and Albumax® (lipid-rich bovine serum albumin) (GIBCO, Grand Island, N.Y.) (5 g/l), together with 5% washed human A+ erythrocytes. All cultures and assays are conducted at 37° C. under an atmosphere of 4% CO2, 3% O2 and 93% N2. Cultures are kept in incubation chambers filled with the gas mixture. Subcultures are diluted to a parasitaemia of 0.1-0.5% and the medium changed daily.
(§2) Antimalarial activity is assessed using an adaptation of the procedures described by Desjardins et al. (Antimicrob. Agents Chemother. 16(6):710-8, 1979), and Matile and Pink (In: Lefkovits, I. and Pernis, B. (Eds.). Immunological Methods. Academic Press, San Diego, pp. 221-234, 1990).
(§3) After use the stocks are kept at −20° C. The compound is further diluted to the appropriate concentration using complete medium without hypoxanthine. […]
(§4) After 48 hours of incubation at 37° C., 0.5 μCi ^3H-hypoxanthine is added to each well. […] The radioactivity is counted using a Betaplate™ liquid scintillation counter (Wallac, Zurich, Switzerland). […] From the sigmoidal inhibition curves IC50 values are calculated. […]

The next data set has as its system P. falciparum NF54. Description: Malaria whole cell assay, NF54 strain. It counts as cell-based. As to conditions: Plasmodium falciparum. The method, then:
as §1, §2, §3, §4

Data set [1] concerns the target T1, Plasmodium falciparum dUTPase (Plasmodium falciparum, UniProt Q8II92).
T1 construct: made in house; host or cells: E. coli BL21 (DE3)
T1 sequence (Q8II92 1-173): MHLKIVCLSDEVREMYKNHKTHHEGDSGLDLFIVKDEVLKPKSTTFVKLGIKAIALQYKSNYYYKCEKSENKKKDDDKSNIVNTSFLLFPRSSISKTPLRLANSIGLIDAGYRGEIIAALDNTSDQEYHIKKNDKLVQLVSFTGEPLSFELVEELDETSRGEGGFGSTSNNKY
Description: Malaria enzyme assay: inhibition of Plasmodium falciparum dUTPase. It counts as biochemical. On the procedure: Inhibition of Plasmodium falciparum dUTPase
2′-dUTP, was purchased from Pharmacia. MgCl2, BSA, and the pH indicator cresol red were from Sigma. The buffer N,N-bis(2-hydroxyethyl)glycine (BICINE) was obtained from USB (United States Biochemical), Ohio. All the concentrations of nucleotides were calculated spectrophotometrically (HP-8453, Hewlett Packard) at 280 nm, using the extinction coefficient (ε280 nm=1.75 ml mg^−1cm^−1). Other chemicals used in these experiments were of the highest quality available.
Recombinant P. falciparum dUTPase was purified from E. coli BL21 (DE3) cells transformed with pET-PFdut. Pellets from a liter of culture were resuspended in a solution consisting of buffer A (20 mM MES pH 5.5, 50 mM NaCl, 1 mM DTT) plus the protease inhibitors 1 mM PMSF, 20 μg/ml leupeptin and 1 mM benzamidine. Purification was carried out in a cold room (4° C.). The soluble crude extract was obtained by sonication in a Vibra-cell (Sonics and Materials Inc. Danbury, Conn., USA) and centrifugation at 14000×g. The extract was loaded onto a phosphocellulose column (Whatman) pre-equilibrated with buffer A at a flow rate of 1 ml/min. After washing the column with 100 ml of buffer A, elution was performed using a linear NaCl gradient of 50 to 1000 mM. Peak fractions with a low concentration of contaminating protein, as judged by 15% SDS-PAGE gels, were pooled and then loaded and chromatographed on a Superdex 200 column at a flow rate of 0.5 ml/min. The column was equilibrated with buffer B (50 mM Bicine, 1 mM DTT, 10 mM MgCl2). Peak fractions were pooled and concentrated to about 5 mg/ml by ultrafiltration in a Centripep tube (Amicon) and stored at −80° C.
Nucleotide hydrolysis was monitored by mixing enzyme and substrate with a rapid kinetic accessory (Hi-Tech Scientific) attached to a spectrophotometer (Cary 50) and connected to a computer for data acquisition and storage. Protons, released through the hydrolysis of nucleotides, were neutralised by a pH indicator in a weak buffered medium with similar pKa and monitored spectrophotometrically at the absorbance peak of the basic form of the indicator. Absorbance changes were kept within 0.1 units. The indicator/buffer pair used was cresol red/BICINE ([…], pH 8, 573 nm). The measurements were performed at 25° C., and the solutions were previously degassed. Assays contained 30 nM purified recombinant enzyme, 50 μM dUTP, 5 mM MgCl2 and 2.5 mM DTT, 1.25 mg/ml BSA and 100 mM KCl. Indicator absorbance changes corresponding to complete hydrolysis of nucleotides were recorded in the computer, and the kinetic parameters Vmax and Kmapp (or slope) were calculated by fitting the data to the integrated Michaelis-Menten equation (Segel, 1975). [dUMP]/t=Vmax−Kmap/t ln [dUTP]([dUTP]−[dUMP])
Solutions of potential inhibitors were prepared at 10 mg/ml and tested routinely at concentrations of […]. A wider range of concentrations was further tested when necessary for Ki determination. The different apparent Km values attained were plotted against inhibitor concentration and Ki values were obtained according to the following equation: […]

Another data set deals with Plasmodium falciparum. Nature of the data set: Malaria whole cell assay (cell culture). It counts as cell-based. As to conditions: read-out: ED50 (the source's name). The method, then:
as §1, §2
After use the stocks are kept at −20° C. The compound is further diluted to the appropriate concentration using complete medium without hypoxanthine.
Assays are performed in sterile 96-well microtiter plates, each well containing 200 μl of parasite culture (0.15% parasitemia, 2.5% hematocrit) with or without serial drug solutions. Seven 2-fold dilutions are used covering a range from 5 μg/ml to 0.078 μg/ml.
After 48 hours of incubation at 37° C., 0.5 μCi ^3H-hypoxanthine is added to each well. Cultures are incubated for a further 24 h before they are harvested onto glass-fiber filters and washed with distilled water. The radioactivity is counted using a Betaplate™ liquid scintillation counter (Wallac, Zurich, Switzerland). […] From the sigmoidal inhibition curves IC50 values are calculated.
K1 strain is used. The compounds are tested at 7 concentrations (5000 to 78 ng/ml). Artemisinin and chloroquine are included as reference drugs.

[2] abbreviates: Plasmodium falciparum enzyme, read-out: Ki.

The term melting point denotes the temperature, or range, at which the solid turns liquid. `COc1ccc(C(NC[C@H]2O[C@@H](n3ccc(=O)[nH]c3=O)CC2O)(c2ccccc2)c2ccccc2)cc1` (stereo partly shown) (as salt: salt) [Example 23, 5′-paraMethoxytritylamino-2′,5′-dideoxyuridine] yielded a melting point of 140 to 142 °C.
On the same count and under the same terms, as for `O=c1ccn(C2CC(O)C(CNC(c3ccccc3)(c3ccccc3)c3ccncc3)O2)c(=O)[nH]1` (stereo not shown) [Example 8, 5′-(4-pyridydiphenylmethyl)amino-2′,5′-dideoxyuridine], the figure is 131 to 133 °C; as for `COc1ccc(C(OC[C@H]2O[C@@H](n3ccc(=O)[nH]c3=O)CC2O)(c2ccccc2)c2ccccc2)cc1` (stereo partly shown) [Example 20, 5′-O-paramethoxytrityl-2′-deoxyuridine], 96 to 97 °C.
On to `N#Cc1ccc(C(NC[C@H]2O[C@@H](n3ccc(=O)[nH]c3=O)C[C@@H]2O)(c2ccccc2)c2ccccc2)cc1` [Example 22, 5′-[(4-cyanotrityl)amino]-2′,5′-dideoxyuridine], for which the melting point is 160 to 163 °C.
`O=c1ccn([C@H]2C[C@H](O)[C@@H](CNC(c3ccccc3)(c3ccccc3)c3ccccc3Cl)O2)c(=O)[nH]1` [Example 24, 5′-[(2-chlorotrityl)amino]2′,5′-dideoxyuridine]: the melting point was in the range of 129 to 131 °C.
In turn, `O=c1ccn(C2CC(O)C(CNC3(c4ccccc4)c4ccccc4Oc4ccccc43)O2)c(=O)[nH]1` (stereo not shown) [Example 26, 5′-Pixylamino-2′,5′-dideoxyuridine] returned a melting point of 117 to 119 °C.
As usually defined, the IC50 is the point on the concentration scale where inhibition reaches its midpoint. Consider `C[C@@H]1CC[C@H]2[C@@H](C)C(=O)O[C@@H]3O[C@@]4(C)CC[C@@H]1[C@]32OO4` [artemisinin], for which the half-inhibitory concentration (IC50) in the data set with P. falciparum K1 (K1 strain, read-out: IC50) was 0.8 ng/mL (≈ 2.83 nM); in the data set with P. falciparum NF54 (NF54 strain, read-out: IC50), 1.9 ng/mL (≈ 6.73 nM).
`CCN(CC)CCCC(C)Nc1ccnc2cc(Cl)ccc12` (stereo not shown) [chloroquine]: the IC50 is 48 ng/mL (≈ 150 nM) with P. falciparum K1 (K1) and 2.9 ng/mL (≈ 9.07 nM) with P. falciparum NF54 (NF54).
For orientation: pKi means the Ki on a negative log10 scale, so that one unit is a factor of ten. `O=c1ccn([C@H]2C[C@H](O)[C@@H](CNC(c3ccccc3)(c3ccccc3)c3ccccc3)O2)c(=O)[nH]1` [drawing 55 Ph3CNH, 5′-Tritylamino-2′,5′-dideoxyuridine]: in data set [1] (setting [2]), the pKi was 6.70. In the data set on Plasmodium falciparum, the pEC50 is 5.35.
Regarding `O=c1ccn([C@H]2C[C@H](O)[C@@H](COC(c3ccccc3)(c3ccccc3)c3ccccc3)O2)c(=O)[nH]1` [drawing 55 Ph3CO, 5′-O-trityl-2′-deoxyuridine], the pKi in data set [1] (setting [2]) is 5.74. Besides, the pEC50 in the data set on Plasmodium falciparum was 5.22.
In the case of `CC(C)(C)[Si](OC[C@H]1O[C@@H](n2ccc(=O)[nH]c2=O)C[C@@H]1O)(c1ccccc1)c1ccccc1` [drawing 55 TBDPSO, 5′-O-tert-Butyldiphenylsilyl-2′-deoxyuridine], in data set [1] (setting [2]), the negative logarithm of the Ki (pKi) was 5.38. Further, in the data set with Plasmodium falciparum, the pEC50 was 5.18.
With `O=c1ccn([C@H]2C[C@H](O)[C@@H](CO[Si](c3ccccc3)(c3ccccc3)c3ccccc3)O2)c(=O)[nH]1` [drawing 55 TPSO, 5′-O-Triphenylsilyl-2′-deoxyuridine], in data set [1] (setting [2]), the pKi was 5.55. In addition, the pEC50 with Plasmodium falciparum is 5.96.
In data set [1], `CC(C)(C)[Si](C)(C)OC1CC(n2ccc(=O)[nH]c2=O)OC1COC(c1ccccc1)(c1ccccc1)c1ccccc1` (stereo not shown) [drawing 56 Ph3CO, 1-[4-(tert-Butyl-dimethyl-silanyloxy)-5-trityloxymethyl-tetrahydro-furan-2-yl]-1H pyrimidine-2,4-dione] gave a pKi of 3.29. In addition, in the data set with Plasmodium falciparum, the pEC50 was 6.00.
Take `CC(C)(C)[Si](C)(C)OC1C[C@H](n2ccc(=O)[nH]c2=O)O[C@@H]1CNC(c1ccccc1)(c1ccccc1)c1ccccc1` (stereo partly shown) [drawing 56 Ph3NH, 3′-O-tertbutyldimethylsilyl-5′-Tritylamino-2′,5-dideoxyuridine]: the pKi in data set [1] is 3.50. In the data set with Plasmodium falciparum, the pEC50 is 5.74.
In the case of `CC(C)(C)[Si](OCC1C=CC(n2ccc(=O)[nH]c2=O)O1)(c1ccccc1)c1ccccc1` (stereo not shown) [drawing 57 TBDPSO, 5′-O-tert-butyldiphenylsilyl-2′,3′-dideoxydidehydrouridine], the pKi in data set [1] (setting [2]) was 5.92. Besides, in the data set with Plasmodium falciparum, the pEC50 was 5.52.
For `O=c1ccn([C@H]2C=C[C@@H](CO[Si](c3ccccc3)(c3ccccc3)c3ccccc3)O2)c(=O)[nH]1` [drawing 57 TPSO, 5′-Triphenylsilyloxy-2′,3′-dideoxydidehydrouridine], in data set [1], the pKi is 5.89. Besides, the pEC50 with Plasmodium falciparum is 6.00.
With `O=c1ccn([C@H]2C[C@H](F)[C@@H](COC(c3ccccc3)(c3ccccc3)c3ccccc3)O2)c(=O)[nH]1` [drawing 58 Ph3CO, 3′-Fluoro-5′-O-trityl-2′,3′-dideoxyuridine], the negative-log Ki (pKi) in data set [1] (setting [2]) is 5.30. The pEC50 in the data set with Plasmodium falciparum is 5.70.
In data set [1], `O=c1ccn([C@H]2C[C@H](F)[C@@H](CNC(c3ccccc3)(c3ccccc3)c3ccccc3)O2)c(=O)[nH]1` [drawing 58 Ph3NH, 3′-Fluoro-5′-tritylamino-2′,3′,5′-trideoxyuridine] gave a pKi of 4.92. In the data set on Plasmodium falciparum, the pEC50 is 5.28.
Consider `CC(C)(C)[Si](OC[C@H]1O[C@@H](n2ccc(=O)[nH]c2=O)CC1F)(c1ccccc1)c1ccccc1` (stereo partly shown) [drawing 58 TBDPSO, 3′-Fluoro-5′-O-tert-Butyidiphenylsilyl-2′,3′-dideoxyuridine], for which the pKi in data set [1] is 4.05. Moreover, in the data set on Plasmodium falciparum, the pEC50 was 5.06.
The compound `O=c1ccn([C@H]2C[C@H](F)[C@@H](CO[Si](c3ccccc3)(c3ccccc3)c3ccccc3)O2)c(=O)[nH]1` [drawing 58 TPSO, 3′-Fluoro-5′-O-triphenylsilyl-2′,3′-dideoxyuridine] showed a pKi in data set [1] of 3.01. The pEC50 with Plasmodium falciparum was 6.00.
